# Results reported in article PMC9405123, “Design, Synthesis and Mechanistic Studies of Novel Isatin-Pyrazole Hydrazone Conjugates as Selective and Potent Bacterial MetAP Inhibitors” (Antibiotics, 2022).
# Read-outs that look alike come from different tables or passages of the source.
# How the values were obtained:
# Staphylococcus aureus = details: cited from earlier work
# K. pneumoniae [1] = assay: Growth inhibition screening (broth dilution); assay type: cell-based, Klebsiella pneumonia
# Description: (§1) In vitro screening of the compounds (PS1–14) was performed to assess the antibacterial activity against three Gram-positive (Staphylococcus aureus, Enterococcus faecalis and Bacillus subtilis,) and three Gram-negative (Pseudomonas aeruginosa, Klebsiella pneumonia and Escherichia coli) bacterial strains using the standard NCCLS broth dilution assay. The study’s standard drugs were ciprofloxacin (CIP) and ampicillin (AMP). Compounds were dissolved in a polar solvent (DMSO) and distributed into a 96-well plate in 200 µL of nutrient broth medium, with a final concentration of the compounds […] in each well. The bacterial cells (about 2.5 × 10^5 cells/mL) were inoculated into each well and incubated at 37 °C overnight. After incubation, the growth was measured by turbidity of the culture at 590 nm by spectrophotometer.
# EfMetAP1a = EfMetAP1a (Enterococcus faecalis, UniProt Q832M5); assay: MetAP enzyme inhibition, Morrison Ki (Met-AMC fluorescence); assay type: biochemical; details: Morrison Ki method
# E. faecalis [2] = assay: Growth inhibition screening (broth dilution); assay type: cell-based, Enterococcus faecalis
# Description: as §1
# K. pneumoniae [3] = assay: Minimum bactericidal concentration; assay type: cell-based, Klebsiella pneumonia
# P. aeruginosa [4] = assay: Minimum bactericidal concentration; assay type: cell-based, Pseudomonas aeruginosa
# K. pneumoniae [5] = assay: Combination study with AMP or CIP
# E. coli [6] = assay: Growth inhibition screening (broth dilution); assay type: cell-based, Escherichia coli
# Description: as §1
# B. subtilis [7] = assay: Growth inhibition screening (broth dilution); assay type: cell-based, Bacillus subtilis
# Description: as §1
# S. aureus [8] = assay: Minimum bactericidal concentration; assay type: cell-based, Staphylococcus aureus
# E. coli [9] = assay: Minimum bactericidal concentration; assay type: cell-based, Escherichia coli
# E. coli [10] = assay: Combination study with AMP or CIP
# P. aeruginosa [11] = assay: Minimum inhibitory concentration (broth dilution); assay type: cell-based; details: Pseudomonas aeruginosa, alone
# SpMetAP1a = SpMetAP1a (Streptococcus pneumoniae, UniProt Q8DPV1); assay: MetAP enzyme inhibition, Morrison Ki (Met-AMC fluorescence); assay type: biochemical; details: Morrison Ki method
# B. subtilis [12] = assay: Minimum bactericidal concentration; assay type: cell-based, Bacillus subtilis
# HsMetAP1b = biological target: T1, HsMetAP1b (Homo sapiens, UniProt P53582); assay: MetAP enzyme inhibition, Morrison Ki (Met-AMC fluorescence); assay type: biochemical, H. sapiens; details: Morrison Ki method
# T1 construct: made in house
# E. faecalis [13] = assay: Minimum inhibitory concentration (broth dilution); assay type: cell-based; details: Enterococcus faecalis, alone
# P. aeruginosa [14] = assay: Combination study with AMP or CIP
# K. pneumoniae [15] = assay: Minimum inhibitory concentration (broth dilution); assay type: cell-based, Klebsiella pneumonia; details: Klebsiella pneumoniae, alone, read-out: MIC
# MtMetAP1c = biological target: T2, MtMetAP1c (Mycobacterium tuberculosis, UniProt P9WK19); assay: MetAP enzyme inhibition, Morrison Ki (Met-AMC fluorescence); assay type: biochemical, M. tuberculosis; details: Morrison Ki method
# T2 construct: made in house
# Description: MetAP appears to serve a vital role in the co- or post-translational modification of proteins, making it essential for bacterial cell metabolism and survival. In this study, all enzymes, which were used for this study, including MtMetAP1c (M. tuberculosis), EfMetAP1a (E. faecalis), SpMetAP1a (S. pneumoniae) and HsMetAP1b (H. sapiens) enzymes, were expressed and purified in our lab as previously reported. All compounds prepared 10 mM stocks in DMSO and were used for enzyme inhibition studies. The concentration of each enzyme is adjusted such that they have similar reaction rates (HsMetAp1b, 1 µM; SpMetAP1a, 5 µM; EfMetAP1a, 1 µM; MtMetAP1c, 1 µM;) as reported earlier. All assays were performed in […] reaction containing 50 mM HEPES (pH 7.5 for SpMetAP1a and HsMetAP1b; 8.0 for EfMetAP1a, MtMetAP1c, […]), 150 mM NaCl, and CoCl2 (three molar equivalents of corresponding enzymes). The reaction was started by adding 50 μM L-Methionine 7-amido-4-methyl coumarin (Met-AMC) and continuously monitoring the fluorescence of released 7-amino-4-methyl coumarin (AMC) (380 nm excitation and 460 nm emission) in a microplate multimode reader (TECAN, Austria). The maximum percentage of inhibition against enzymes is calculated at […] compound concentration. […] The Ki values were determined according to the Morrison method using three different concentrations of substrates and ten different concentrations of the inhibitor. All experiments were performed in triplicate. GraphPad Prism version 8.0.0 (San Diego, CA, USA) was used to determine all the kinetic parameters.
# P. aeruginosa [16] = assay: Growth inhibition screening (broth dilution); assay type: cell-based, Pseudomonas aeruginosa
# Description: as §1
# E. faecalis [17] = assay: Combination study with AMP or CIP
# S. aureus [18] = assay: Combination study with AMP or CIP
# S. aureus [19] = assay: Growth inhibition screening (broth dilution); assay type: cell-based, Staphylococcus aureus; details: Staphylococcus aureus
# Description: as §1
# B. subtilis [20] = assay: Combination study with AMP or CIP
# B. subtilis [21] = assay: Minimum inhibitory concentration (broth dilution); assay type: cell-based; details: Bacillus subtilis, alone
# E. coli [22] = assay: Minimum inhibitory concentration (broth dilution); assay type: cell-based, Escherichia coli; details: Escherichia coli, alone, read-out: MIC
# E. faecalis [23] = assay: Minimum bactericidal concentration; assay type: cell-based, Enterococcus faecalis
# S. aureus [24] = assay: Minimum inhibitory concentration (broth dilution); assay type: cell-based; details: Staphylococcus aureus, alone
# T2 sequence (P9WK19 whole entry): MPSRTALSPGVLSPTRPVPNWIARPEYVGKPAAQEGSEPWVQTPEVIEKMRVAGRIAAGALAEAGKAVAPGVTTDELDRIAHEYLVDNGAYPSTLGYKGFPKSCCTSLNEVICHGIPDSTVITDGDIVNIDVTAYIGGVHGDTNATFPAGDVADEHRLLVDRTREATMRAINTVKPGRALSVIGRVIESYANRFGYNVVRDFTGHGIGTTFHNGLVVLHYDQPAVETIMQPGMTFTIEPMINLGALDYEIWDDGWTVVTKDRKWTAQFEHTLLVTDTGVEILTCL
# Sequence of EfMetAP1a (Q832M5 entry or part of it): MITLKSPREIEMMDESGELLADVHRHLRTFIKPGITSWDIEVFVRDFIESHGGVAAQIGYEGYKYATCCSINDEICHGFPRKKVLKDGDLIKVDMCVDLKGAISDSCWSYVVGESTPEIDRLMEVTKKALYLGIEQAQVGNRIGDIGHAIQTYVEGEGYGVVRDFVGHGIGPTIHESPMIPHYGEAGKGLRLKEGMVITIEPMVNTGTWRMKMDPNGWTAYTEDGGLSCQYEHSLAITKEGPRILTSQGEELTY
# Sequence of SpMetAP1a (Q8DPV1 entry or part of it): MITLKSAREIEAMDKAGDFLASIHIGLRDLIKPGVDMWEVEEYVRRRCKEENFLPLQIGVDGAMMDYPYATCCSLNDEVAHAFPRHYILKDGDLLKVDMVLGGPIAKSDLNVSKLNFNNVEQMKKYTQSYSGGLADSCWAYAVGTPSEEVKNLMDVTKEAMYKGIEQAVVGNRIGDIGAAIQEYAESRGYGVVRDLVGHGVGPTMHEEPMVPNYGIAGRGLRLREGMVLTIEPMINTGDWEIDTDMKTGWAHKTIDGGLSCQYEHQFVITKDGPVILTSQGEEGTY
smiles,measurement,setting,value
COc1ccc([C@]2(C)[C@@H](Cl)C(=O)N2NC(=O)c2cc(-c3ccc(Cl)cc3)n[nH]2)cc1 [C],MIC,Staphylococcus aureus,2.5 ng/mL
"O=C1Nc2cc(Cl)c(F)cc2/C1=N\NC(=O)c1cc(-c2cccc(Br)c2)n[nH]1 [PS6, (E)-3-(3-Bromophenyl)-N′-(6-Chloro-5-Fluoro-2-Oxoindolin-3-Ylidene)-1H-Pyrazole-5-Carbohydrazide]",inhibition at 250 µg/mL,K. pneumoniae [1]; Klebsiella pneumoniae,> 70%
same,% Growth Inhibition at 250 µg/mL,K. pneumoniae [1]; listed as C00006,80%
same,Ki,EfMetAP1a,1650 ± 310 nM
same,inhibition at 250 µg/mL,E. faecalis [2]; Enterococcus faecalis,> 70%
same,% Growth Inhibition at 250 µg/mL,E. faecalis [2]; listed as C00006,73%
same,MBC/MIC Ratio (R*),K. pneumoniae [3],2
same,MBC,K. pneumoniae [3]; Klebsiella pneumoniae,128 µg/mL
same,MBC/MIC Ratio (R*),P. aeruginosa [4],8
same,MBC,P. aeruginosa [4]; Pseudomonas aeruginosa,256 µg/mL
same,MIC in Combination,K. pneumoniae [5]; combination PS6 + AMP,4 µg/mL
same,MIC in Combination,K. pneumoniae [5]; combination PS6 + CIP,8 µg/mL
same,FICI,K. pneumoniae [5]; combination with AMP,0.18
same,FICI,K. pneumoniae [5]; combination with CIP,0.62
same,Mode of Interaction,K. pneumoniae [5]; combination with CIP,Indifferent (in between 0.5 and 4)
same,% Growth Inhibition at 250 µg/mL,E. coli [6],more than 70%
same,% Growth Inhibition at 250 µg/mL,E. coli [6]; listed as C00006,97%
same,melting point,,191 to 194 °C
same,% Growth Inhibition at 250 µg/mL,B. subtilis [7],more than 70%
same,% Growth Inhibition at 250 µg/mL,B. subtilis [7]; listed as C00006,100%
same,MBC/MIC Ratio (R*),S. aureus [8],32
same,MBC,S. aureus [8]; Staphylococcus aureus,512 µg/mL
same,MBC/MIC Ratio (R*),E. coli [9],8
same,MBC,E. coli [9]; Escherichia coli,256 µg/mL
same,MIC in Combination,E. coli [10]; combination PS6 + AMP,4 µg/mL
same,MIC in Combination,E. coli [10]; combination PS6 + CIP,8 µg/mL
same,FICI,E. coli [10]; combination with AMP,0.25
same,FICI,E. coli [10]; combination with CIP,0.31
same,MIC,P. aeruginosa [11],32 µg/mL
same,Ki,SpMetAP1a,2550 ± 110 nM
same,MBC/MIC Ratio (R*),B. subtilis [12],2
same,MBC,B. subtilis [12]; Bacillus subtilis,16 µg/mL
same,Ki,HsMetAP1b,172 ± 4.8 µM
same,MIC,E. faecalis [13],16 µg/mL
same,MIC in Combination,P. aeruginosa [14]; combination PS6 + AMP,4 µg/mL
same,MIC in Combination,P. aeruginosa [14]; combination PS6 + CIP,4 µg/mL
same,FICI,P. aeruginosa [14]; combination with AMP,0.25
same,FICI,P. aeruginosa [14]; combination with CIP,0.25
same,Mode of Interaction,P. aeruginosa [14]; combination with CIP,Synergistic (FICI value is less than or equal to 0.5)
same,MIC,K. pneumoniae [15],64 µg/mL
same,Ki,MtMetAP1c,740 ± 60 nM
same,% Growth Inhibition at 250 µg/mL,P. aeruginosa [16],more than 70%
same,% Growth Inhibition at 250 µg/mL,P. aeruginosa [16]; listed as C00006,100%
same,MIC in Combination,E. faecalis [17]; combination PS6 + AMP,1 µg/mL
same,MIC in Combination,E. faecalis [17]; combination PS6 + CIP,4 µg/mL
same,FICI,E. faecalis [17]; combination with AMP,0.09
same,FICI,E. faecalis [17]; combination with CIP,0.31
same,MIC in Combination,S. aureus [18]; combination PS6 + AMP,1 µg/mL
same,MIC in Combination,S. aureus [18]; combination PS6 + CIP,8 µg/mL
same,FICI,S. aureus [18]; combination with AMP,0.31
same,FICI,S. aureus [18]; combination with CIP,1
same,Mode of Interaction,S. aureus [18]; combination with CIP,Indifferent (in between 0.5 and 4)
same,inhibition at 250 µg/mL,S. aureus [19],61%
same,MIC in Combination,B. subtilis [20]; combination PS6 + AMP,2 µg/mL
same,MIC in Combination,B. subtilis [20]; combination PS6 + CIP,8 µg/mL
same,FICI,B. subtilis [20]; combination with AMP,0.75
same,FICI,B. subtilis [20]; combination with CIP,1.06
same,Mode of Interaction,B. subtilis [20]; combination with CIP,Indifferent (in between 0.5 and 4)
same,MIC,B. subtilis [21],8 µg/mL
same,MIC,E. coli [22],32 µg/mL
same,MBC/MIC Ratio (R*),E. faecalis [23],2
same,MBC,E. faecalis [23]; Enterococcus faecalis,32 µg/mL
same,MIC,S. aureus [24],16 µg/mL
